Laboratory results: the supplement of paper PMC4862054

Experiments:
Experiment in all cases: normalised response (% of control), CellTiter-Glo; higher = more viable cells (100 = DMSO, 0 = benzethonium chloride kill control)
Details in all cases: incubation time: 72 h
CAL-85-1 = tested on: CAL-85-1
Summary of the method: (§1)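 Each value is the plate-normalised signal at one concentration of the series. Breast cancer cell lines (20 µl suspension) were incubated 72 h in 384-well plates with compound at 5 concentrations in 10-fold steps over a compound-specific 10,000-fold range. CellTox Green and then CellTiter-Glo were read, and each plate was scaled to 0.1 % DMSO (100) and a positive kill control (0).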

CAL-51 = tested on: CAL-51
Summary of the method: as §1

MFM-223 = tested on: MFM-223
Summary of the method: as §1

BT-549 = tested on: BT-549
Summary of the method: as §1

HCC1143 = tested on: HCC1143
Summary of the method: as §1

MDA-MB-468 = tested on: MDA-MB-468
Summary of the method: as §1

HCC1937 = tested on: HCC1937
Summary of the method: as §1

MDA-MB-436 = tested on: MDA-MB-436
Summary of the method: as §1

HCC1599 = tested on: HCC1599
Summary of the method: as §1

Hs578T = tested on: Hs578T
Summary of the method: as §1

MDA-MB-453 = tested on: MDA-MB-453
Summary of the method: as §1

HDQ-P1 = tested on: HDQ-P1
Summary of the method: as §1

BT-474 = tested on: BT-474
Summary of the method: as §1

MDA-MB-231 = tested on: MDA-MB-231
Summary of the method: as §1

CAL-120 = tested on: CAL-120
Summary of the method: as §1

CAL-148 = tested on: CAL-148
Summary of the method: as §1

SK-BR-3 = tested on: SK-BR-3
Summary of the method: as §1

DU-4475 = tested on: DU-4475
Summary of the method: as §1

MCF-10A = tested on: MCF-10A
Summary of the method: as §1

SMILES | normalised response (CAL-85-1) [%] | normalised response (CAL-51) [%] | normalised response (MFM-223) [%] | normalised response (BT-549) [%] | normalised response (HCC1143) [%] | normalised response (MDA-MB-468) [%] | normalised response (HCC1937) [%] | normalised response (MDA-MB-436) [%] | normalised response (HCC1599) [%] | normalised response (Hs578T) [%] | normalised response (MDA-MB-453) [%] | normalised response (HDQ-P1) [%] | normalised response (BT-474) [%] | normalised response (MDA-MB-231) [%] | normalised response (CAL-120) [%] | normalised response (CAL-148) [%] | normalised response (SK-BR-3) [%] | normalised response (DU-4475) [%] | normalised response (MCF-10A) [%]
CCC1(c2ccc(N)cc2)CCC(=O)NC1=O (centres undefined) [Aminoglutethimide] (10 nM) | 105 | 151 | 101 | 95.2 | 108 | 101 | 99.3 | 95.4 | 97 | 97.3 | 90.2 | 97.5 | 105 | 104 | 100 | 100 | 98.7 | 104 | 103
Cn1c(CCCC(=O)O)nc2cc(N(CCCl)CCCl)ccc21 [Bendamustine] (10 nM) | 102 | 100 | 106 | 99.3 | 107 | 106 | 102 | 104 | 106 | 103 | 107 | 101 | 111 | 103 | 107 | 110 | 110 | 111 | 110
C=C(c1ccc(C(=O)O)cc1)c1cc2c(cc1C)C(C)(C)CCC2(C)C [Bexarotene] (10 nM) | 107 | 137 | 107 | 97.1 | 101 | 104 | 94.6 | 100 | 96.3 | 97 | 101 | 106 | 99.8 | 100 | 101 | 106 | 98.8 | 101 | 99.4
COc1cc2nccc(Oc3ccc(NC(=O)C4(C(=O)Nc5ccc(F)cc5)CC4)cc3)c2cc1OC [Cabozantinib] (1 nM) | 96.1 | 122 | 102 | 98.8 | 99.1 | 102 | 94.4 | 96.6 | 107 | 102 | 105 | 99.3 | 97.3 | 104 | 100 | 95.9 | 101 | 101 | 93.5
N.N.[Cl][Pt][Cl] [Cisplatin] (0.1 nM) | 97.2 | 115 | 96.9 | 106 | 95.2 | 97.3 | 101 | 98.2 | 110 | 102 | 98.9 | 101 | 101 | 99.7 | 102 | 85.7 | 98.6 | 92 | 103
C[C@@H](Oc1cc(-c2cnn(C3CCNCC3)c2)cnc1N)c1c(Cl)ccc(F)c1Cl [Crizotinib] (0.1 nM) | 92.6 | 82.4 | 103 | 104 | 99.3 | 91.7 | 100 | 96.7 | 82 | 96.2 | 111 | 96.7 | 101 | 102 | 102 | 102 | 81.6 | 106 | 95.6
COc1cc2ncnc(Nc3ccc(F)c(Cl)c3)c2cc1NC(=O)/C=C/CN1CCCCC1 [Dacomitinib] (0.1 nM) | 97.5 | 71.8 | 102 | 102 | 107 | 101 | 104 | 102 | 93.7 | 98.5 | 99.9 | 99.8 | 99 | 102 | 94 | 109 | 99.6 | 95.3 | 101
C[C@]12CC[C@@H]3c4ccc(O)cc4C[C@@H](CCCCCCCCC[S+]([O-])CCCC(F)(F)C(F)(F)F)[C@H]3[C@@H]1CC[C@@H]2O (some centres undefined) [Fulvestrant] (0.1 nM) | 101 | 123 | 107 | 109 | 95.3 | 101 | 105 | 105 | 93.4 | 112 | 112 | 101 | 101 | 100 | 95.7 | 102 | 108 | 102 | 107
O=P1(NCCCl)OCCCN1CCCl (centres undefined) [Ifosfamide] (10 nM) | 100 | 118 | 89.1 | 95.9 | 98.1 | 91.6 | 95.8 | 94 | 89.3 | 102 | 87.7 | 98 | 96.8 | 101 | 93.2 | 86.1 | 94.9 | 92.5 | 96.1
CC(C)Cn1cnc2c(N)nc3ccccc3c21 [Imiquimod] (0.25 nM) | 103 | 96.8 | 100 | 99 | 99.2 | 91.9 | 97.1 | 99.6 | 99.2 | 99 | 109 | 94.2 | 102 | 101 | 96.5 | 99.6 | 110 | 104 | 111
N#CCNC(=O)c1ccc(-c2ccnc(Nc3ccc(N4CCOCC4)cc3)n2)cc1 [Momelotinib] (1 nM) | 94.6 | 128 | 92.3 | 95.1 | 97.6 | 98.2 | 97.7 | 97.8 | 94.7 | 97.2 | 91.9 | 100 | 89.8 | 97.2 | 96.9 | 94.2 | 95.8 | 95.3 | 90.4
N#CCNC(=O)c1ccc(-c2ccnc(Nc3ccc(N4CCOCC4)cc3)n2)cc1 [Momelotinib] (10 nM) | 97.1 | 80.9 | 94.2 | 99.6 | 100 | 92.8 | 96.8 | 101 | 89.8 | 104 | 89.5 | 103 | 94.2 | 97.4 | 95.1 | 94.9 | 115 | 97.2 | 103
CC1(C)NC(=O)N(c2ccc([N+](=O)[O-])c(C(F)(F)F)c2)C1=O [Nilutamide] (10 nM) | 96 | 127 | 112 | 105 | 101 | 93.3 | 101 | 110 | 113 | 99.1 | 103 | 95.6 | 105 | 102 | 97.9 | 112 | 117 | 109 | 110
CCCCCCCCCCCCCCCCCCOP(=O)([O-])OC1CC[N+](C)(C)CC1 [Perifosine] (0.25 nM) | 96.5 | 102 | 92.3 | 107 | 103 | 99 | 98.8 | 116 | 113 | 108 | 105 | 106 | 99.4 | 99.6 | 108 | 99.2 | 92.3 | 92.7 | 101
CCCCCCCCCCCCCCCCCCOP(=O)([O-])OC1CC[N+](C)(C)CC1 [Perifosine] (2.5 nM) | 101 | 81 | 92.8 | 99.5 | 102 | 97.4 | 101 | 95.2 | 61.5 | 98.9 | 101 | 108 | 104 | 100 | 102 | 95.9 | 92.8 | 94.7 | 98.4
Cc1ccc(C(=O)Nc2ccc(CN3CCN(C)CC3)c(C(F)(F)F)c2)cc1C#Cc1cnc2cccnn12 [Ponatinib] (1 nM) | 108 | 101 | 99.5 | 106 | 97.1 | 107 | 98.4 | 108 | 103 | 97.3 | 98.2 | 104 | 104 | 97.2 | 106 | 99.5 | 99.4 | 100 | 103
CS(=O)(=O)c1ccc(C2=C(c3ccccc3)C(=O)OC2)cc1 [Rofecoxib] (1 nM) | 98.4 | 69.4 | 111 | 106 | 110 | 108 | 107 | 103 | 99.1 | 104 | 98.5 | 101 | 103 | 104 | 98.6 | 108 | 112 | 106 | 114
N[C@@H](CSC(c1ccccc1)(c1ccccc1)c1ccccc1)C(=O)O [S-trityl-L-cysteine] (40 nM) | 104 | 131 | 107 | 99.2 | 92.7 | 98.5 | 93.8 | 103 | 109 | 94.3 | 95 | 119 | 96.7 | 90.4 | 102 | 97.5 | 97.5 | 101 | 105
CC(=O)Nc1ccc(C(=O)Nc2ccccc2N)cc1 [Tacedinaline] (0.1 nM) | 104 | 113 | 97.1 | 99.5 | 92.9 | 105 | 98.4 | 101 | 100 | 96.7 | 104 | 94.2 | 102 | 98.9 | 92.1 | 93.2 | 105 | 100 | 98.4
CC(=O)Nc1ccc(C(=O)Nc2ccccc2N)cc1 [Tacedinaline] (1 nM) | 95.8 | 124 | 101 | 96.2 | 99.5 | 98.3 | 92.7 | 101 | 109 | 96 | 103 | 98.9 | 105 | 97.6 | 97.9 | 95.3 | 97.1 | 97.6 | 93.5
O=C1CCC(N2C(=O)c3ccccc3C2=O)C(=O)N1 (centres undefined) [Thalidomide] (10 nM) | 100 | 65.4 | 97.5 | 99.7 | 97.3 | 91.9 | 95.3 | 95.8 | 102 | 100 | 96.3 | 96.1 | 94 | 98.4 | 94.2 | 92.6 | 98.9 | 97.2 | 100
